Test results published in US20090263341A1, “SOFT ANTICHOLINERGIC ESTERS” (priority 2005, published 2009).
Counter-ions that a name gives are not always drawn. Like-named read-outs stand apart in the source and are kept apart here.

Columns and labels:
[1] = molecular target: T1, cloned human muscarinic receptor subtype M4 (Homo sapiens, UniProt P08173); test: Receptor binding, [3H]NMS, cloned human muscarinic receptor M4
T1 construct: purchased Applied Cell Science Inc. (Rockville, Md.)
T1 sequence (P08173 1-479): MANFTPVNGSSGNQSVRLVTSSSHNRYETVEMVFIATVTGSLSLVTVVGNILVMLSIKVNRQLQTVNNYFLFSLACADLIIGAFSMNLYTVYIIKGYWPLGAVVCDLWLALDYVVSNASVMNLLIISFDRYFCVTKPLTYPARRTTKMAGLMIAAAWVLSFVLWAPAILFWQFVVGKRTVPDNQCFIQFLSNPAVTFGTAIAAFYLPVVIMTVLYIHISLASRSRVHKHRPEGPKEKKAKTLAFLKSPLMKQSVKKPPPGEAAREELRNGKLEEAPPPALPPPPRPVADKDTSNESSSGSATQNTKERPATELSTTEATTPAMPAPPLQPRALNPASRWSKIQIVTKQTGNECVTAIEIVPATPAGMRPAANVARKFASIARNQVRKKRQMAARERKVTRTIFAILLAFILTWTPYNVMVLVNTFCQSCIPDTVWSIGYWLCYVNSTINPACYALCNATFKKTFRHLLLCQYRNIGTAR

[2] = molecular target: cloned human muscarinic receptor subtypes M1-M4; test: Receptor binding at cloned human muscarinic receptors, values stated across subtypes (ranges, M3/M2 selectivity)
[3] = molecular target: T2, cloned human muscarinic receptor subtype M1 (Homo sapiens, UniProt P11229); test: Receptor binding, [3H]NMS, cloned human muscarinic receptor M1
T2 sequence (P11229 1-460): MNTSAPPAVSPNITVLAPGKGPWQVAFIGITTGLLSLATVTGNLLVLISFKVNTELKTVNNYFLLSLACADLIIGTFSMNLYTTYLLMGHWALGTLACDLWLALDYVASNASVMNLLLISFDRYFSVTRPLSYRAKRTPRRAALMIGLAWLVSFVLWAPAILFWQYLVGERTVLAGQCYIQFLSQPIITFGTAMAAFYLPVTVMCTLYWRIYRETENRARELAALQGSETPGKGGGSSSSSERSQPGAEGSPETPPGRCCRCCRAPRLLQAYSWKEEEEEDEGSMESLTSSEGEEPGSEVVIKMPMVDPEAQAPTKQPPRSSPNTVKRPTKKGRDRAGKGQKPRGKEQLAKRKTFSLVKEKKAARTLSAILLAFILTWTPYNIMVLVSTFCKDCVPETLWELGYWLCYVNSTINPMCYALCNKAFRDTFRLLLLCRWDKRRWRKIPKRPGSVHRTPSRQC

[4] = molecular target: T3, cloned human muscarinic receptor subtype M3 (Homo sapiens, UniProt P20309); test: Receptor binding, [3H]NMS, cloned human muscarinic receptor M3
T3 construct: purchased Applied Cell Science Inc. (Rockville, Md.)

[5] = molecular target: T4, cloned human muscarinic receptor subtype M2 (Homo sapiens, UniProt P08172); test: Receptor binding, [3H]NMS, cloned human muscarinic receptor M2
T4 sequence (P08172 1-466): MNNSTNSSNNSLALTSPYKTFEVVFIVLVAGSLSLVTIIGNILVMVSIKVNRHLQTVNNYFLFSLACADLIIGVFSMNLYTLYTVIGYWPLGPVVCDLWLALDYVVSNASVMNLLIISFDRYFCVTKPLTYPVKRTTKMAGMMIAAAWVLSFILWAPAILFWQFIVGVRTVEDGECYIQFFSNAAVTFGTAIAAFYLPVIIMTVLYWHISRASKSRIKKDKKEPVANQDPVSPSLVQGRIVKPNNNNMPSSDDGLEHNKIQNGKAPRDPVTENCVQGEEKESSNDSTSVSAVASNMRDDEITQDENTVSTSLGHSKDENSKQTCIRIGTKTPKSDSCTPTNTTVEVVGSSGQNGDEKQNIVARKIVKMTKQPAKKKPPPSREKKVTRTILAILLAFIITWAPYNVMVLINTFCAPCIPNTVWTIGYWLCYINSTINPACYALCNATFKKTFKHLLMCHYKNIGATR

[6] = test system: guinea pig tracheal rings; test: Guinea pig trachea assay, pA2 against carbachol (Schild plot)
Procedure: Changes in isometric tension were measured by a force displacement transducer (Experimetria, Budapest, Hungary) coupled to a Watanabe recorder. Cumulative concentration-effect curves were constructed to carbachol in the absence or presence of the antagonists. In each animal two preparations were used as time control (i.e., repeated carbachol curves in the absence of any antagonist) the remaining two preparations were used to test responses in the presence of two different concentrations of the antagonist.
Antagonists were added to the organ bath 30 min prior to commencement of the agonist concentration versus effect curves. Schild plots were constructed for the antagonists against carbachol and pA2 values as well as slope estimates were obtained.
Responses were measured as changes in isometric tension and calculated as a percentage of the maximum response attained in the initial concentration-response curve. Determination of antagonist potencies was done by constructing Schild double logarithmic plot of log (DR-1) versus −log M concentrations of the antagonist, and the slope of the plot was computed. […] Statistical significance was assessed by ANOVA followed by Dunnett test.

[7] = test system: guinea pig ileum (M3 muscarinic receptors)
[8] = test system: acetylcholine-induced bronchoconstriction; conditions: guinea pig, in vivo
[9] = test system: guinea pig ileum longitudinal muscle strips; test: Guinea pig ileum longitudinal muscle assay, pA2 against acetylcholine (Schild plot)
[10] = test system: electrically stimulated guinea pig tracheal strips; test: Time course of anticholinergic effect in electrically stimulated guinea pig trachea
[11] = molecular target: muscarinic receptors (mainly M1) of rat brain cortex membranes (Rattus norvegicus, UniProt P08482); type: binding
[12] = time from washout to 20% recovery of cholinergic responses

With `C[N+]1(CC(=O)OCC(Cl)(Cl)Cl)[C@@H]2C[C@@H](OC(=O)C(O)(c3cccs3)c3cccs3)C[C@H]1[C@@H]1O[C@@H]12` (some centres unmarked) (as salt: bromide) as the molecule, how does the melting point read?
The melting point was 105 °C.

With `CCOC(=O)C[N+]1(C)[C@@H]2C[C@@H](OC(=O)C(O)(c3cccs3)c3cccs3)C[C@H]1[C@@H]1O[C@@H]12` (stereo partly drawn) (as salt: bromide) [Compound (w), 6β,7β-epoxy-3,8-hydroxy-8-ethoxycarbonylmethyl-8-methyl-1αH,5αH-tropaniun bromide, di-2-thienylglycolate] as the molecule, how does the melting point read?
Its melting point is 115 °C.

With `C[N+]1(CC(=O)O)[C@@H]2C[C@@H](OC(=O)C(O)(c3cccs3)c3cccs3)C[C@H]1[C@@H]1O[C@@H]12` (stereo partly drawn) (as salt: salt) [Compound (aa), 6β,7β-epoxy-3β-hydroxy-8-carboxymethyl-8-methyl-1αH,5αH-tropanuim, di-2-thienylglycolate inner salt] as the molecule, how does the melting point read?
Its melting point is 158 to 165 °C (dec.).

What does the source list for `CCOC(=O)C[N+]1(C)CC[C@H](OC(=O)[C@](O)(c2ccccc2)C2CCCC2)C1` (mixture of isomers) [Compound (j), (2R,3′S) 3-(2-cyclopentyl-2-phenyl-2-hydroxyacetoxy)-1-(ethoxycarbonylmethyl)-1-methylpyrrolidinium bromide]?
Ki ([1]; mean ± SD of 3 experiments, read-out: receptor binding affinity pKi, M4 (converted)): 1.95 nM; Hill slope, M4 ([1]; numbers in parentheses): (1.15 ± 0.03); pKi, range over subtypes M1-M4 [2]: 8.2-8.7; Selectivity M3/M2 (affinity ratio) ([2]; M3/M2 affinity ratio): 2.8±0.8 times; Ki ([3]; mean ± SD of 3 experiments, read-out: receptor binding affinity pKi, M1 (converted)): 2.09 nM; Hill slope, M1 ([3]; numbers in parentheses): (1.21 ± 0.33); Ki ([4]; mean ± SD of 3 experiments, read-out: receptor binding affinity pKi, M3 (converted)): 2.29 nM; Hill slope, M3 ([4]; numbers in parentheses): (1.33 ± 0.16); Ki ([5]; mean ± SD of 3 experiments, read-out: receptor binding affinity pKi, M2 (converted)): 6.17 nM; Hill slope, M2 ([5]; numbers in parentheses): (1.27 ± 0.11)

With `C[N+]1(C)CCC(OC(=O)C(O)(c2ccccc2)C2CCCC2)C1.[Br-]` (mixture of isomers) [glycopyrrolate, 3-(2-cyclopentyl-2-phenyl-2-hydroxyacetoxy)-1,1-dimethylpyrrolidinium bromide, reference compound] as the molecule, how does the “pA2, Trachea” value [6] read?
The value was 9.43.

What about the pA2 [7] of the same molecule?
The pA2 was 8.57±0.12.

And the “Hill slope, M4” value [1]?
The value was “(1.02 ± 0.01)”.

And the “effect on acetylcholine-induced bronchoconstriction” value [8]?
The value was “protective effect”.

What about the “Hill slope, M1” value [3] of the same molecule?
Its value is “(1.37 ± 0.20)”.

What about the “pA2, Ileum” value [9] of the same molecule?
The value was 9.66.

And the “Hill slope, M3” value [4]?
The value was “(1.14 ± 0.25)”.

What about the “Hill slope, M2” value [5] of the same molecule?
The value was “(0.99 ± 0.11)”.

Which “t1/5 offset” value [10] does the source give for `CN1[C@@H]2CC[C@H]1C[C@@H](OC(=O)C(CO)c1ccccc1)C2` (some centres unmarked) [Atropine, atropine] here?
The value was 10 min.

And the “t1/5 onset” value [10]?
Its value is 2.5 min.

And the “pA2, Ileum” value [9]?
Its value is 8.52.

Which “t1/5 onset” value ([10]; onset of inhibition) does the source give for `C[N+]1(CC(=O)O)[C@@H]2C[C@@H](OC(=O)C(O)(c3cccs3)c3cccs3)C[C@H]1[C@@H]1O[C@@H]12` (stereo partly drawn) [Compound (aa), 6β,7β-epoxy-3β-hydroxy-8-carboxymethyl-8-methyl-1αH,5αH-tropanuim, di-2-thienylglycolate inner salt] here?
The value was 0.9 min.

And the “t1/5 offset” value [10, 12]?
The value was 27 min.

Which “pA2, Trachea” value ([6]; against carbachol, tissue from four animals) does the source give for `CCOC(=O)C[N@+]1(C)CC[C@@H](OC(=O)[C@](O)(c2ccccc2)C2CCCC2)C1` [Compound (m), (2R,1′R,3′R) 3-(2-cyclopentyl-2-phenyl-2-hydroxyacetoxy)-1-(ethoxycarbonylmethyl)-1-methylpyrrolidinium bromide] here?
Its value is 8.12.

What about the “effect on acetylcholine-induced bronchoconstriction” value [8] of the same molecule?
Its value is “protective effect”.

What about the “pA2, Ileum” value ([9]; tissue samples from four animals) of the same molecule?
Its value is 8.48.

What about the Hill slope ([11]; Table 8) of the same molecule?
Its Hill slope is −0.93 ± 0.08.

Which Hill slope ([11]; Table 8) does the source give for `CCOC(=O)C[N@@+]1(C)CC[C@@H](OC(=O)[C@](O)(c2ccccc2)C2CCCC2)C1` [Compound (n), (2R,1′S,3′R) 3-(2-cyclopentyl-2-phenyl-2-hydroxyacetoxy)-1-(ethoxycarbonylmethyl)-1-methylpyrrolidinium bromide] here?
Its Hill slope is −1.07 ± 0.02.

Which “pA2, Trachea” value [6] does the source give for `CCOC(=O)C[N+]1(C)[C@@H]2C[C@@H](OC(=O)C(O)(c3cccs3)c3cccs3)C[C@H]1[C@@H]1O[C@@H]12` (stereo partly drawn) [Compound (w), 6β,7β-epoxy-3,8-hydroxy-8-ethoxycarbonylmethyl-8-methyl-1αH,5αH-tropaniun bromide, di-2-thienylglycolate] here?
The value was 8.82.

What about the “t1/5 onset” value ([10]; onset of inhibition) of the same molecule?
The value was 0.6 min.

And the “t1/5 offset” value [10, 12]?
The value was 60 min.

What about the “Hill slope” value [11] of the same molecule?
Its value is −1.00 ± 0.04.

And the Ki [11]?
Its Ki is 7.2 ± 0.5 nM.

Which “pA2, Trachea” value [6] does the source give for `CC(C)[N+]1(C)[C@@H]2CC[C@H]1CC(OC(=O)C(CO)c1ccccc1)C2.[Br-]` (some centres unmarked) [Ipratropium Br, ipratropium bromide, reference compound] here?
The value was 9.18.

And the “t1/5 onset” value [10]?
The value was 3.0 min.

Which “t1/5 offset” value [10] does the source give for `C[N+]1(C)[C@@H]2C[C@@H](OC(=O)C(O)(c3cccs3)c3cccs3)C[C@H]1[C@@H]1O[C@@H]12` [Tiotropium, tiotropium] here?
The value was over 360 min.

What about the “t1/5 onset” value [10] of the same molecule?
Its value is 8.0 min.

Which “Hill slope, M2” value [5] does the source give for `C[N+]1(C)[C@@H]2C[C@@H](OC(=O)[C@H](CO)c3ccccc3)C[C@H]1[C@@H]1O[C@@H]12` [scopolamine methyl bromide, scopolamine methylbromide, reference compound] here?
Its value is “(1.02 ± 0.02)”.
